The record followed here is ChEMBL document CHEMBL1201862, “PubChem BioAssay data set” (2004).

SMILES strings stand for the structures.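 The compound was tested at five concentrations on cells cultured in 96-well plates, with a 48-hour exposure period. GI50 marks 50% less growth.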 Calls of active or inactive are those of the source. No stated cut-off is given here; in the data, active = GI50 up to about 1.1 µM and inactive = higher.

Common to all, as to test: NCI tumour cell line growth inhibition, 48 h
Experiment [1] deals with 786-0.
In experiment [2] the test system is DU-145.
For experiment [3], the system named is HOP-62.
Experiment [4] concerns HT-29.
Experiment [5] concerns KM12.
Experiment [6] relates to M14.
Experiment [7] concerns MDA-MB-231.
Experiment [8] concerns MOLT-4.
In experiment [9] the test system is NCI-H23.
For experiment [10], the system named is OVCAR-4.
Experiment [11] relates to OVCAR-8.
Experiment [12] has as its system PC-3.
For experiment [13], the system named is RPMI-8226.
For experiment [14], the system named is SF-268.
The subject of experiment [15] is SF-295.
Experiment [16] has as its system SF-539.
Experiment [17] concerns SK-OV-3.
Experiment [18] deals with SN12C.
Experiment [19] relates to SNB-75.
Experiment [20] relates to SR.

For `CN(Cc1cccc2ccccc12)Cc1cccc2ccccc12`, the GI50 was 37.8 µM (inactive) in experiment [1]; 54 µM (inactive) in [2]; 45.6 µM (inactive) in experiment [3]; 15.4 µM (inactive) in experiment [4]; 41.5 µM (inactive) in experiment [5]; 27.5 µM (inactive) in [6]. In addition, the GI50 in experiment [7] was 21.8 µM (inactive); in experiment [8], 15.3 µM (inactive); in experiment [9], 26.6 µM (inactive); in experiment [10], 36.1 µM (inactive); in experiment [11], 70.5 µM (inactive); in [12], 24 µM (inactive). For the same compound, the GI50 in [13] was 22.6 µM (inactive); in [14], 41.6 µM (inactive); in experiment [15] it was 26.7 µM (inactive); in [16], 23.8 µM (inactive); in [17] it was 65.6 µM (inactive); in [18], 36.6 µM (inactive). Moreover, the GI50 in experiment [19] was 46.1 µM (inactive); in experiment [20], 30.8 µM (inactive).
Take `Nc1nc(N)c2c(Cl)c(CNc3ccc(C(=O)NC(CC(=O)O)C(=O)O)cc3)ccc2n1` (stereo not given): the GI50 in experiment [1] was < 0.01 µM (active); in [2] it was < 0.01 µM (active); in experiment [3], < 0.027 µM (active); in [4] it was < 0.01 µM (active); in [5], < 0.01 µM (active); in [6], < 0.01 µM (active). The GI50 is > 100 µM (inactive) in experiment [7]; < 0.01 µM (active) in [8]; < 0.01 µM (active) in experiment [9]; 3.69 µM (inactive) in experiment [10]; < 0.01 µM (active) in [11]; 9.31 µM (inactive) in [12]. The GI50 in experiment [13], in experiment [14], in experiment [15], in experiment [16], in experiment [17] and in experiment [18] was < 0.01 µM (active) throughout. Also, the GI50 was 8.87 µM (inactive) in [19] and < 0.01 µM (active) in experiment [20].
Turning to `COc1cc2nncc(SCc3ccc(Cl)c(Cl)c3)c2cc1OC`, the GI50 is 42.8 µM (inactive) in [1]; > 100 µM (inactive) in experiment [2]; 32.3 µM (inactive) in [3]; > 100 µM (inactive) in [4]; > 62.7 µM (inactive) in experiment [5]; > 35.6 µM (inactive) in experiment [6]. Besides, the GI50 was > 100 µM (inactive) in [7]; > 100 µM (inactive) in experiment [8]; > 100 µM (inactive) in [9]; > 49.9 µM (inactive) in experiment [10]; > 100 µM (inactive) in experiment [11]; > 100 µM (inactive) in experiment [12]. For the same compound, the GI50 was > 100 µM (inactive) in [13]; > 69.5 µM (inactive) in experiment [14]; > 69.3 µM (inactive) in experiment [15]; 35.6 µM (inactive) in experiment [16]; > 71.3 µM (inactive) in experiment [17]; > 100 µM (inactive) in experiment [18]. Moreover, the figures for the GI50 in experiment [19] and in experiment [20] were 24.4 µM (inactive) and > 100 µM (inactive), respectively.
As to `CN(C)CCCNC(=O)c1cn2c(ccc3sc4ccccc4c(=O)c32)n1`, the GI50 in experiment [1] was 3.06 µM (inactive); in experiment [2], 12.3 µM (inactive); in experiment [3], 12.3 µM (inactive); in [4] it was 1.3 µM (inactive); in experiment [5], 12 µM (inactive); in experiment [6], 12.9 µM (inactive). The GI50 in [7] is 1.31 µM (inactive); in experiment [8] it was 0.738 µM (active); in [9] it was 13.4 µM (inactive); in experiment [10] it was 13.6 µM (inactive); in experiment [11] it was 4.85 µM (inactive); in experiment [12], 4.8 µM (inactive). Also, the GI50 is 1.73 µM (inactive) in [13]; 3.82 µM (inactive) in experiment [14]; 5.36 µM (inactive) in [15]; 16.7 µM (inactive) in experiment [16]; 16.9 µM (inactive) in experiment [17]; 4.56 µM (inactive) in experiment [18]. Also, the GI50 in [19] is 14.3 µM (inactive); in experiment [20] it was 1.95 µM (inactive).
`COc1c(O)cc2c(c1O)C(=O)/C(=C/c1ccc(O)cc1)CO2`: the GI50 is 30.8 µM (inactive) in [1]; 27.1 µM (inactive) in experiment [2]; 33.1 µM (inactive) in experiment [3]; 20.1 µM (inactive) in experiment [4]; 13.6 µM (inactive) in experiment [5]; 28.1 µM (inactive) in experiment [6]. Besides, the GI50 is 40.2 µM (inactive) in experiment [7]; 36 µM (inactive) in [8]; 26.8 µM (inactive) in [9]; 20.1 µM (inactive) in experiment [10]; 17.9 µM (inactive) in [11]; 43 µM (inactive) in experiment [12]. Further, the GI50 in [13] is 9.33 µM (inactive); in [14], 29.1 µM (inactive); in experiment [15], 37.7 µM (inactive); in experiment [16] it was 20.5 µM (inactive); in experiment [17], 24.7 µM (inactive); in [18], 23 µM (inactive). Moreover, the GI50 in experiment [19] was 21.2 µM (inactive); in experiment [20], 13.5 µM (inactive).
For the compound `C/C(=C/CO[Si](C)(C)C(C)(C)C)C(=O)N(C)c1ccccc1I`, the GI50 in experiment [1] is 17.1 µM (inactive); in [2], 18.2 µM (inactive); in experiment [3], 18.4 µM (inactive); in [4], 10 µM (inactive); in [5] it was 16.5 µM (inactive); in [6], 15.2 µM (inactive). In addition, the GI50 in experiment [7] is 15.1 µM (inactive); in experiment [8], 18.2 µM (inactive); in [9], 22 µM (inactive); in experiment [10], 15.3 µM (inactive); in [11] it was 16.9 µM (inactive); in experiment [12], 14.1 µM (inactive). Moreover, the GI50 in experiment [13] was 19.4 µM (inactive); in experiment [14], 17.5 µM (inactive); in [15], 16.5 µM (inactive); in experiment [16], 17.2 µM (inactive); in experiment [17], 18 µM (inactive); in [18] it was 17.2 µM (inactive). Further, the figures for the GI50 in [19] and in [20] were 19.1 µM (inactive) and 11.6 µM (inactive), respectively.
For `CNC(=O)OC(COC)CN1CCN(c2ccccc2C)CC1` (stereo not given), the GI50 in experiment [1], in [2], in [3], in [4], in [5] and in experiment [6] was > 10 µM (inactive) each time. The GI50 in [7], in [8], in [9], in [10], in experiment [11] and in experiment [12] was > 10 µM (inactive) each time. Also, the GI50 in experiment [13], in experiment [14], in [15], in experiment [16], in [17] and in [18] was > 10 µM (inactive) throughout. For the same compound, the GI50 in experiment [19] and in experiment [20] was > 10 µM (inactive) each time.
With `COC(=O)C1=C(O)C(C(=O)OC)C2CC(=O)CC1C2(C)C` (stereo not given), the GI50 in experiment [1], in [2], in [3], in experiment [4], in experiment [5] and in experiment [6] was > 100 µM (inactive) throughout. The GI50 in experiment [7], in experiment [8], in experiment [9], in experiment [10], in experiment [11] and in experiment [12] was > 100 µM (inactive) throughout. Further, the GI50 in [13], in experiment [14], in experiment [15], in experiment [16], in experiment [17] and in experiment [18] was > 100 µM (inactive) each time. The GI50 in [19] was 88.9 µM (inactive); in [20], > 100 µM (inactive).
For the compound `CCOC(=O)/C(=C\c1ccnc2ccccc12)P(=O)(OCC)OCC`, the GI50 was 1.94 µM (inactive) in experiment [1]; 2.71 µM (inactive) in experiment [2]; 1.93 µM (inactive) in experiment [3]; 2.16 µM (inactive) in experiment [4]; 4.01 µM (inactive) in experiment [5]; 1.93 µM (inactive) in experiment [6]. For the same compound, the GI50 in experiment [7] was 2.11 µM (inactive); in [8], 4.65 µM (inactive); in experiment [9], 1.9 µM (inactive); in experiment [10] it was 2.26 µM (inactive); in experiment [11], 1.81 µM (inactive); in [12], 5.53 µM (inactive). Further, the GI50 in experiment [13] was 2.67 µM (inactive); in experiment [14], 2.53 µM (inactive); in [15], 2.99 µM (inactive); in [16] it was 1.47 µM (inactive); in [17] it was 4.99 µM (inactive); in [18] it was 3.01 µM (inactive). Moreover, the figures for the GI50 in experiment [19] and in experiment [20] were 3.49 µM (inactive) and 2.24 µM (inactive), respectively.
In the case of `CCC1(C(=O)OC(C)(C)C)OC12C(C)CCCC2C` (stereo not given), the GI50 in experiment [1] is 40.6 µM (inactive); in experiment [2], > 100 µM (inactive); in experiment [3], 48.9 µM (inactive); in [4] it was 39.5 µM (inactive); in experiment [5] it was 37.3 µM (inactive); in experiment [6] it was 41.2 µM (inactive). In addition, the GI50 was > 100 µM (inactive) in [7]; 18.7 µM (inactive) in experiment [8]; 83.6 µM (inactive) in experiment [9]; 28.1 µM (inactive) in [10]; 78.7 µM (inactive) in experiment [11]; 57.9 µM (inactive) in [12]. The GI50 in [13] is 21.5 µM (inactive); in [14], 43.1 µM (inactive); in experiment [15], 38.4 µM (inactive); in [16] it was > 100 µM (inactive); in experiment [17] it was 73.6 µM (inactive); in experiment [18] it was 62.1 µM (inactive). In addition, the GI50 in experiment [19] was 32.9 µM (inactive); in experiment [20] it was 18.5 µM (inactive).
